The record followed here is ChEMBL document CHEMBL4304811, “Development of a Water-Soluble Indolylmaleimide Derivative IM-93 Showing Dual Inhibition of Ferroptosis and NETosis” (ACS Med Chem Lett, 2019).

Assay [1] has as its system HL-60. In words: Cytoprotection against human HL60 cells assessed as inhibition of H2O2-induced cell death pretreated for 1 hr followed by H2O2 stimulation measured after 3 hrs by p-iodonitrotetrazolium violet dye based LDH assay. Format: functional.
Assay [2] concerns the target Serine/threonine-protein kinase pim-2 (Homo sapiens) (UniProt Q9P1W9). In words: Binding affinity to wild-type human partial length PIM2 (M1 to E291 residues) expressed in bacterial expression system assessed as residual binding level at 10 uM by Kinomescan method relative to control.
Assay [3] concerns the target Platelet-derived growth factor receptor beta (Homo sapiens) (UniProt P09619). In words: Binding affinity to wild-type human partial length PDGFRB (V582 to Y1009 residues) expressed in bacterial expression system assessed as residual binding level at 10 uM by Kinomescan method relative to control.
Assay [4] has as its target Tyrosine-protein kinase Fer (Homo sapiens) (UniProt P16591). As to the kind of experiment: Binding affinity to wild-type human partial length FER (S542 to T822 residues) expressed in bacterial expression system assessed as residual binding level at 10 uM by Kinomescan method relative to control.
Assay [5] has as its target Atypical kinase COQ8A, mitochondrial (Homo sapiens) (UniProt Q8NI60). As to the kind of experiment: Binding affinity to wild-type human full length ADCK3 (M280 to Q647 residues) expressed in bacterial expression system assessed as residual binding level at 10 uM by Kinomescan method relative to control.
Assay [6] concerns the target Mitogen-activated protein kinase kinase kinase 9 (Homo sapiens) (UniProt P80192). As to the kind of experiment: Binding affinity to wild-type human partial length MLK1 (V88 to W426 residues) expressed in bacterial expression system assessed as residual binding level at 10 uM by Kinomescan method relative to control.
In assay [7] the target is Casein kinase I isoform epsilon (Homo sapiens) (UniProt P49674). As to the kind of experiment: Binding affinity to wild-type human full length CSNK1E (M1 to K416 residues) expressed in bacterial expression system assessed as residual binding level at 10 uM by Kinomescan method relative to control.
Assay [8] addresses Interleukin-1 receptor-associated kinase 4 (Homo sapiens) (UniProt Q9NWZ3). As to the kind of experiment: Binding affinity to wild-type human partial length IRAK4 (M1 to S460 residues) expressed in mammalian expression system assessed as residual binding level at 10 uM by Kinomescan method relative to control.
For assay [9], the target named is Transient receptor potential cation channel subfamily M member 6 (Homo sapiens) (UniProt Q9BX84). In words: Binding affinity to wild-type human partial length TRPM6 (Q1723 to I1998 residues) expressed in mammalian expression system assessed as residual binding level at 10 uM by Kinomescan method relative to control.
Assay [10] concerns the target TRAF2 and NCK-interacting protein kinase (Homo sapiens) (UniProt Q9UKE5). In words: Binding affinity to wild-type human partial length TNIK (D4 to K311 residues) expressed in bacterial expression system assessed as residual binding level at 10 uM by Kinomescan method relative to control.
The target of assay [11] is Serine/threonine-protein kinase DCLK3 (Homo sapiens) (UniProt Q9C098). As to the kind of experiment: Binding affinity to wild-type human partial length DCAMKL3 (E140 to V628 residues) expressed in bacterial expression system assessed as residual binding level at 10 uM by Kinomescan method relative to control.
Assay [12] concerns the target Mitogen-activated protein kinase kinase kinase 3 (Homo sapiens) (UniProt Q99759). As to the kind of experiment: Binding affinity to wild-type human partial length MAP3K3 (E320 to Y626 residues) expressed in mammalian expression system assessed as residual binding level at 10 uM by Kinomescan method relative to control.
Assay [13] addresses TGF-beta receptor type-1 (Homo sapiens) (UniProt P36897). In words: Binding affinity to wild-type human partial length TGFBR1 (D179 to M503 residues) expressed in bacterial expression system assessed as residual binding level at 10 uM by Kinomescan method relative to control.
Assay [14] has as its target cAMP-dependent protein kinase catalytic subunit beta (Homo sapiens) (UniProt P22694). As to the kind of experiment: Binding affinity to wild-type human full length PKAC-beta (M1 to F351 residues) expressed in bacterial expression system assessed as residual binding level at 10 uM by Kinomescan method relative to control.
The target of assay [15] is Phosphatidylinositol 4-kinase beta (Homo sapiens) (UniProt Q9UBF8). As to the kind of experiment: Binding affinity to wild-type human full length PIK4CB (M1 to M828 residues) expressed in mammalian expression system assessed as residual binding level at 10 uM by Kinomescan method relative to control.
Assay [16] addresses Cyclin-dependent kinase 17 (Homo sapiens) (UniProt Q00537). As to the kind of experiment: Binding affinity to wild-type human full length PCTK2 (M1 to F523 residues) expressed in bacterial expression system assessed as residual binding level at 10 uM by Kinomescan method relative to control.
Assay [17] deals with Serine/threonine-protein kinase Nek10 (Homo sapiens) (UniProt Q6ZWH5). As to the kind of experiment: Binding affinity to wild-type human partial length NEK10 (L488 to R809 residues) expressed in mammalian expression system assessed as residual binding level at 10 uM by Kinomescan method relative to control.
The target of assay [18] is Mitogen-activated protein kinase kinase kinase kinase 5 (Homo sapiens) (UniProt Q9Y4K4). In words: Binding affinity to wild-type human partial length MAP4K5 (M1 to P297 residues) expressed in bacterial expression system assessed as residual binding level at 10 uM by Kinomescan method relative to control.
Assay [19] deals with Activin receptor type-1B (Homo sapiens) (UniProt P36896). As to the kind of experiment: Binding affinity to wild-type human ACVR1B (S187 to I505 residues) expressed in bacterial expression system assessed as residual binding level at 10 uM by Kinomescan method relative to control.
The target in assay [20] is Tyrosine-protein kinase CSK (Homo sapiens) (UniProt P41240). As to the kind of experiment: Binding affinity to wild-type human full length CSK (M1 to L450 residues) expressed in bacterial expression system assessed as residual binding level at 10 uM by Kinomescan method relative to control.
For assay [21], the system named is ALK tyrosine kinase receptor (Homo sapiens), Q9UM73 [C1156Y]. In words: Binding affinity to […] human partial length ALK C1156Y mutant (I1088 to E1409 residues) expressed in mammalian expression system assessed as residual binding level at 10 uM by Kinomescan method relative to control.
Assay [22] deals with Cytoplasmic tyrosine-protein kinase BMX (Homo sapiens) (UniProt P51813). In words: Binding affinity to wild-type human full length BMX (M1 to H675 residues) expressed in bacterial expression system assessed as residual binding level at 10 uM by Kinomescan method relative to control.
In assay [23] the target is Cyclin-dependent kinase 2 homolog (Plasmodium falciparum (isolate 3D7)) (UniProt P61075). In words: Binding affinity to wild-type Plasmodium falciparum full length PK5 (M1 to N288 residues) expressed in mammalian expression system assessed as residual binding level at 10 uM by Kinomescan method relative to control.
The target of assay [24] is Megakaryocyte-associated tyrosine-protein kinase (Homo sapiens) (UniProt P42679). In words: Binding affinity to wild-type human full length CTK (M43 to P508 residues) expressed in mammalian expression system assessed as residual binding level at 10 uM by Kinomescan method relative to control.

Platelet-derived growth factor receptor beta (Homo sapiens), sequence (P09619 whole entry, the tested form may be a part): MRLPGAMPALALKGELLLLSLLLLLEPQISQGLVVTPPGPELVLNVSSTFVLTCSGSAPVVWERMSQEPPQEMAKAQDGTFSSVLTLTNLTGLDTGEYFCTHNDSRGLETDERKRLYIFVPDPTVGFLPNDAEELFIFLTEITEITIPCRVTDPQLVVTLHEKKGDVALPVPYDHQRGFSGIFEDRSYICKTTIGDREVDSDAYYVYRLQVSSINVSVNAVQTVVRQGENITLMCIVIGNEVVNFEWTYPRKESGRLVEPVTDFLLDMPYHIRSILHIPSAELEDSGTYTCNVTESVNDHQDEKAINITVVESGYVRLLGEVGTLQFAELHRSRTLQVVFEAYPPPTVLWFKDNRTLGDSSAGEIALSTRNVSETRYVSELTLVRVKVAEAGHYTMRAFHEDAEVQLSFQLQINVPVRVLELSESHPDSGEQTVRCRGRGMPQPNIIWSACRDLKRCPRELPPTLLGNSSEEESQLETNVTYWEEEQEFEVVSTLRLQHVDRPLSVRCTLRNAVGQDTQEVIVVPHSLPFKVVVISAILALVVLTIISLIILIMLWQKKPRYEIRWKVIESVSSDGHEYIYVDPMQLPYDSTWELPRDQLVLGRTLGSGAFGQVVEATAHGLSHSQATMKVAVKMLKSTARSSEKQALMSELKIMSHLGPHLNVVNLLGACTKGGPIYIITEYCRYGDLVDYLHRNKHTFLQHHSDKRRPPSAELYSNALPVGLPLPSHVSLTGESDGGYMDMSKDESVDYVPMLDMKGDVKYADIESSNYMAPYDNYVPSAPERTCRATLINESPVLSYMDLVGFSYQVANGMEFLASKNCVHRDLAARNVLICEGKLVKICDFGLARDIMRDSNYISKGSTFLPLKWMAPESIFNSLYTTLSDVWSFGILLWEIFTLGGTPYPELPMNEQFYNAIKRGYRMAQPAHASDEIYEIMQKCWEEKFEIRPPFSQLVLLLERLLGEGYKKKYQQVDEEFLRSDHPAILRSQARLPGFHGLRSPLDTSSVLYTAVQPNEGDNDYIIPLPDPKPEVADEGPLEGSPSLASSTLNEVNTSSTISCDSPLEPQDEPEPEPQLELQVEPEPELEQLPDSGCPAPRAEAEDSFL
TGF-beta receptor type-1 (Homo sapiens), sequence (P36897 whole entry, the tested form may be a part): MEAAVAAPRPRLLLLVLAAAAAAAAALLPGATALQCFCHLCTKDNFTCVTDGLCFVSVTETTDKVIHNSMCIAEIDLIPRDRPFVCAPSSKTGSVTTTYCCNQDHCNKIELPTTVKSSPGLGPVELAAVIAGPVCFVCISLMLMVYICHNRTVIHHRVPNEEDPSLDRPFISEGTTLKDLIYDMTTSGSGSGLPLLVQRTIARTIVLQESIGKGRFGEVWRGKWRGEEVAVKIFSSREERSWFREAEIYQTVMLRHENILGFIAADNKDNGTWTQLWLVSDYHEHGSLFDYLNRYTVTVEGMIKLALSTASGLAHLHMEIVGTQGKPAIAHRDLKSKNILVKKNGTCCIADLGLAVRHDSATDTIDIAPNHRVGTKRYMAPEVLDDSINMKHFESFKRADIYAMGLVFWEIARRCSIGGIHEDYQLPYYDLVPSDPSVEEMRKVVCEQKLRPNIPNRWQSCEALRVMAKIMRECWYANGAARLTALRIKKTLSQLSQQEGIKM
Serine/threonine-protein kinase Nek10 (Homo sapiens), sequence (Q6ZWH5 whole entry, the tested form may be a part): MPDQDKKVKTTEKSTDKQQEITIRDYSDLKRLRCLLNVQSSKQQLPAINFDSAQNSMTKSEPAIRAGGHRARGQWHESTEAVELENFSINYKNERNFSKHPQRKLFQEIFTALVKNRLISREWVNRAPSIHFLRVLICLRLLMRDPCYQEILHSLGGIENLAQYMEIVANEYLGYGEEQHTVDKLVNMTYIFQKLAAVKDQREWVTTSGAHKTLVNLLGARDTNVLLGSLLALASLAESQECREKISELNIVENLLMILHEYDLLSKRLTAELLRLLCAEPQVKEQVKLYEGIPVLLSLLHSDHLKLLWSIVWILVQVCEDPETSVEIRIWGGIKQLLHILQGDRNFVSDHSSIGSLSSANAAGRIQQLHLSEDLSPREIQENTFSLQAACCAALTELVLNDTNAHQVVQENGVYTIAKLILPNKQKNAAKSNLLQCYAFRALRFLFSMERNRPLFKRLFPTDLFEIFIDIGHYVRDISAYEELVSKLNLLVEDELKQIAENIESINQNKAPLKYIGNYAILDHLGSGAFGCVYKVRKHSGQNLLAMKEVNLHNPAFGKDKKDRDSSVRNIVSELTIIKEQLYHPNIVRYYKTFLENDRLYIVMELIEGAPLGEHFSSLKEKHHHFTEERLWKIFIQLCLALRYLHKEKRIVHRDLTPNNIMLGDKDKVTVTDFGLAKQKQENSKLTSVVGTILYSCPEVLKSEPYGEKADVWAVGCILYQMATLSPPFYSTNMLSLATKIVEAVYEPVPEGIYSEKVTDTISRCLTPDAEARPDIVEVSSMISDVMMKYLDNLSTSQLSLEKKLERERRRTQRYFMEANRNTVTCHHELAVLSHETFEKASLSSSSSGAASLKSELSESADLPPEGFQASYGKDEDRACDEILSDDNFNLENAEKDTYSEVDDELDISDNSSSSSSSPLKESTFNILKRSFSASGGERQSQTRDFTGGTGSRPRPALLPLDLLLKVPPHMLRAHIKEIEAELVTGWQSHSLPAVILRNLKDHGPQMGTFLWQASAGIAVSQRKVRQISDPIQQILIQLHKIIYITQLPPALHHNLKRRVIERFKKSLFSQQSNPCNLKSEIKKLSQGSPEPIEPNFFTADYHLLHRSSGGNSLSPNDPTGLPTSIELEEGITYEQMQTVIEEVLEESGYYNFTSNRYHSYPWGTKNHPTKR
Mitogen-activated protein kinase kinase kinase 3 (Homo sapiens), sequence (Q99759 whole entry, the tested form may be a part): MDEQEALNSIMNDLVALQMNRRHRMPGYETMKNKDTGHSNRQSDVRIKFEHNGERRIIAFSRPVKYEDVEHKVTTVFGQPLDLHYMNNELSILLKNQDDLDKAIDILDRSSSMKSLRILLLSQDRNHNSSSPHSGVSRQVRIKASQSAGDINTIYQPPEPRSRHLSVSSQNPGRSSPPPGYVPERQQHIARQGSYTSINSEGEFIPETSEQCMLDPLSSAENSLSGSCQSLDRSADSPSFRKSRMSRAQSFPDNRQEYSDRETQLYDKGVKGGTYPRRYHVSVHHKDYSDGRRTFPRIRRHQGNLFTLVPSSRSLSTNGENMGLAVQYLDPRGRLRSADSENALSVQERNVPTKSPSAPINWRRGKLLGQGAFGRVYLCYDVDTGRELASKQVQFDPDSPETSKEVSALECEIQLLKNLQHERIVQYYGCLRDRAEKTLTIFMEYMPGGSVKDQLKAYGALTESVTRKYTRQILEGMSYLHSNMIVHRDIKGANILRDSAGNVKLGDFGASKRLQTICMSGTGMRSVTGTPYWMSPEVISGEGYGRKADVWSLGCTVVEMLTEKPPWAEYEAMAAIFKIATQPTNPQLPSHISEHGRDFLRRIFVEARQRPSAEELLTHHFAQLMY
Cyclin-dependent kinase 17 (Homo sapiens), sequence (Q00537 whole entry, looked up, the tested form may be a part): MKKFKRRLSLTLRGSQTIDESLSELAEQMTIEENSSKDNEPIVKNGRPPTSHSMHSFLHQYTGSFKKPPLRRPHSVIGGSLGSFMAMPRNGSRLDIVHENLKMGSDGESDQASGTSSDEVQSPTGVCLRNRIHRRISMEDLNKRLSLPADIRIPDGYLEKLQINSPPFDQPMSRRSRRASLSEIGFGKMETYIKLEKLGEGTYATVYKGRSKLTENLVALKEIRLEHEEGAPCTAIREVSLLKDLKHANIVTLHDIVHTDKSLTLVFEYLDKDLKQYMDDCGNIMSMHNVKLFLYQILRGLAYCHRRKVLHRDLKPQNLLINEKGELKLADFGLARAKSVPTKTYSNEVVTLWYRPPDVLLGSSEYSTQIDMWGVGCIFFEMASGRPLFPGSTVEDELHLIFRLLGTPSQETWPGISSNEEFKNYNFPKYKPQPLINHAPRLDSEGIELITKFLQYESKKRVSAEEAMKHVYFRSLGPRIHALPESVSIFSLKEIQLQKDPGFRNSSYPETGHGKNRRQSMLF
Casein kinase I isoform epsilon (Homo sapiens), sequence (P49674 whole entry, looked up, the tested form may be a part, canonical isoform): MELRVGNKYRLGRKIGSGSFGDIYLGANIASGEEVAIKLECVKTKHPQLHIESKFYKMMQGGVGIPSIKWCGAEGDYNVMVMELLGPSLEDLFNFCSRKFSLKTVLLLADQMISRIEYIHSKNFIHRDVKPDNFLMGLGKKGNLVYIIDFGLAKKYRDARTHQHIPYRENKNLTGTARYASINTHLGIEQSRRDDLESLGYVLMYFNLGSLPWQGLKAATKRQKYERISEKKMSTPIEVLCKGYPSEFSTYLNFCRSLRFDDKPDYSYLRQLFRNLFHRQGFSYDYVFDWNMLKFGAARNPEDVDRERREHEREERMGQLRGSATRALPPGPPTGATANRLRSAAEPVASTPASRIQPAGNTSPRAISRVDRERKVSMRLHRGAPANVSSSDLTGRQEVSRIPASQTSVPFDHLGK
Cytoplasmic tyrosine-protein kinase BMX (Homo sapiens), sequence (P51813 whole entry, the tested form may be a part): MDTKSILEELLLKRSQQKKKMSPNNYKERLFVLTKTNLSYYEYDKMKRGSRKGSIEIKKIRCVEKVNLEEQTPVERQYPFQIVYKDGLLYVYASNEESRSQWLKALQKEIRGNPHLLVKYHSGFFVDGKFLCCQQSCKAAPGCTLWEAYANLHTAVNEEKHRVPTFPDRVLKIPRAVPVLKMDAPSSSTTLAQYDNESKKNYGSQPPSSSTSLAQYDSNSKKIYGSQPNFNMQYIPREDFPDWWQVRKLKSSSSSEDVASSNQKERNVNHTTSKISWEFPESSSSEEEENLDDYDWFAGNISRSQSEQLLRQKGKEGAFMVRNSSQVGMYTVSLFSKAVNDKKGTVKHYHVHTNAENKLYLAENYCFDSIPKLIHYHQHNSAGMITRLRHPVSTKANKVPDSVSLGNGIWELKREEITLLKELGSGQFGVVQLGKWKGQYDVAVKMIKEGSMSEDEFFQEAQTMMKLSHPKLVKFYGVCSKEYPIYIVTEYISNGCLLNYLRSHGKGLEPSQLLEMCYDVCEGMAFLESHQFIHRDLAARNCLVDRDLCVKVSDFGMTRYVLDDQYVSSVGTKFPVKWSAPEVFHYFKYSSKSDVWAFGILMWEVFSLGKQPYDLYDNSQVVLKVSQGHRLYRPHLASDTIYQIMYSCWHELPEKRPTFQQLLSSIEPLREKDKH

For the compound `CC(C)N1C(=O)C(NCCCN(C)C)=C(c2cn(C)c3ccccc23)C1=O.Cl`, in assay [1], the half-maximal inhibitory concentration (IC50) (commonly the concentration that gives 50% inhibition) was determined as 0.45 µM. The Activity amounted to 100% in assay [2]; 99% in [3]; 97% in assay [4]; 91% in assay [5]; 100% in [6]; 89% in assay [7]. Moreover, the Activity in assay [8] was found to be 74%; in [9] it was 97%; in [10] it was 100%; in assay [11], 100%; in assay [12] it was 100%; in assay [13], 100%. Moreover, the Activity in [14] came to 98%; in [15], 85%; in assay [16], 99%; in assay [17], 95%; in [18], 100%; in assay [19], 88%. For the same compound, the Activity was 96% in [20]; 90% in assay [21]; 97% in assay [22]; 87% in assay [23]; 83% in [24].
